Measurements as given in patent US7253187B2, “Heterocyclic inhibitors of ERK2 and uses thereof” (Vertex Pharmaceuticals Incorporated, priority 2001, dated 2007).
Where two headings read alike, the source gives them in different places.

Tests used:
GSK-3β (AA 1–420) = biological target: T1, GSK-3β (AA 1–420) (Homo sapiens, UniProt P49841); assay: GSK-3 inhibition assay (coupled enzyme system); type: biochemical; conditions: read-out: GSK3 Inhibitory Activity (Ki class)
T1 construct: GSK-3β (AA 1–420)
Procedure: Final substrate concentrations in the assay were 20 μM ATP (Sigma Chemicals, St Louis, Mo.) and 300 μM peptide (HSSPHQS(PO3H2)EDEEE, American Peptide, Sunnyvale, Calif.). Reactions were carried out at 30° C. and 20 nM GSK-3β. Final concentrations of the components of the coupled enzyme system were 2.5 mM phosphoenolpyruvate, 300 μM NADH, 30 μg/ml pyruvate kinase and 10 μg/ml lactate dehydrogenase.
An assay stock buffer solution was prepared containing all of the reagents listed above with the exception of ATP and the test compound of interest. The assay stock buffer'solution (175 μl) was incubated in a 96 well plate with 5 μl of the test compound of interest at final concentrations spanning 0.002 μM to 30 μM at 30° C. for 10 min. […] The reaction was initiated by the addition of 20 μl of ATP (final concentration 20 μM). Rates of reaction were obtained using a Molecular Devices Spectramax plate reader (Sunnyvale, Calif.) over 10 min at 30° C. The Ki values were determined from the rate data as a function of inhibitor concentration.
The compound numbers correspond to the compound numbers in Table 1.

ERK2 = ERK2 (Homo sapiens, UniProt P28482); assay: ERK2 inhibition assay (spectrophotometric coupled-enzyme assay); type: biochemical
Procedure: The IC50 was evaluated from the rate data as a function of inhibitor concentration. […] The compound numbers correspond to the compound numbers in Table 1.

[1] = read-out: ERK2 Inhibitory Activity (Ki class D-F)

T1 sequence (P49841 whole entry, species assumed, the tested form may be a part): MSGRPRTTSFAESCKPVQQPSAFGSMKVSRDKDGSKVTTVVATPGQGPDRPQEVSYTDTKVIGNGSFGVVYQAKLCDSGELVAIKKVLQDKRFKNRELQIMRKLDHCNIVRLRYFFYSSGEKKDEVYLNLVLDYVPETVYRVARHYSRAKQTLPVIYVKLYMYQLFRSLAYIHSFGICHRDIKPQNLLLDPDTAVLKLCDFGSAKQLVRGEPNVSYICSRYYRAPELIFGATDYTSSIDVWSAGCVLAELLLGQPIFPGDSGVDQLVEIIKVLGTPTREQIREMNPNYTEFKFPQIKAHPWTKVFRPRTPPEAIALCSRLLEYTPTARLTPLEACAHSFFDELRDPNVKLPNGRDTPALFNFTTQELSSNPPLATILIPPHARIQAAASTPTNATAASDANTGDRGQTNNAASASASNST
ERK2, sequence (P28482 whole entry): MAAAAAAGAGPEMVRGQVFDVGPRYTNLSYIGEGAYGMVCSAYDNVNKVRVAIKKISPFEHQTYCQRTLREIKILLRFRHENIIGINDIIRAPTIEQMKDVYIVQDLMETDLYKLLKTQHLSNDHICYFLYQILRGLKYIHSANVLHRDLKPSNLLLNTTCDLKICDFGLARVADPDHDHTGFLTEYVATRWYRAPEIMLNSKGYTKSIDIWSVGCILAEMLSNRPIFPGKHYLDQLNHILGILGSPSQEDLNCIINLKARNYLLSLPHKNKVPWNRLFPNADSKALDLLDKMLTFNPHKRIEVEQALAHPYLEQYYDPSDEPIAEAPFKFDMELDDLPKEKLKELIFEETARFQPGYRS

SMILES	Ki (GSK-3β (AA 1–420))	Ki (ERK2; [1])	Ki (ERK2; ERK2 Inhibitory Activity (Ki class D-F))
Cc1cccc(C(CO)NC(=O)c2cc(-c3nc(NC(CO)c4ccccc4)ncc3C)c[nH]2)c1 (centres unmarked) [III-a-210, 4-[2-(2-Hydroxy-1-phenyl-ethylamino)-5-methyl-pyrimidin-4-yl]-1H-pyrrole-2-carboxylic acid (2-hydroxy-1-m-tolyl-ethyl)-amide]	> 1 µM	< 0.1 µM	
Cc1cnc(NC(CO)CO)nc1-c1c[nH]c(C(=O)NC(CO)c2cccc(Cl)c2)c1 (centres unmarked) [III-a-233, 4-[2-(2-Hydroxy-1-hydroxymethyl-ethylamino)-5-methyl-pyrimidin-4-yl]-1H-pyrrole-2-carboxylic acid [1-(3-chloro-phenyl)-2-hydroxy-ethyl]-amide]	> 1 µM	< 0.1 µM	
Cc1cnc(NC(CO)C(C)C)nc1-c1c[nH]c(C(=O)NC(CO)c2ccccc2)c1 (centres unmarked) [III-a-196, 4-[2-(1-Hydroxymethyl-2-methyl-propylamino)-5-methyl-pyrimidin-4-yl]-1H-pyrrole-2-carboxylic acid (2-hydroxy-1-phenyl-ethyl)-amide]	> 1 µM	< 0.1 µM	
Cc1ccc(Nc2ncc(C)c(-c3c[nH]c(C(=O)NC(CO)c4ccccc4)c3)n2)cc1C (centres unmarked) [III-a-151, 4-[2-(3,4-Dimethyl-phenylamino)-5-methyl-pyrimidin-4-yl]-1H-pyrrole-2-carboxylic acid (2-hydroxy-1-phenyl-ethyl)-amide]	< 0.1 µM	< 0.1 µM	
Cc1cnc(NC(CO)c2ccccc2)nc1-c1c[nH]c(C(=O)NC(CO)c2ccccc2)c1 (centres unmarked) [III-a-166, 4-[2-(2-Hydroxy-1-phenyl-ethylamino)-5-methyl-pyrimidin-4-yl]-1H-pyrrole-2-carboxylic acid (2-hydroxy-1-phenyl-ethyl)-amide]	> 1 µM		0.1 to 1 µM
Cc1cnc(Nc2ccccc2Cl)nc1-c1c[nH]c(C(=O)NC(CO)c2cccc(C(F)(F)F)c2)c1 (centres unmarked) [III-a-200, 4-[2-(2-Chloro-phenylamino)-5-methyl-pyrimidin-4-yl]-1H-pyrrole-2-carboxylic acid [2-hydroxy-1-(3-trifluoromethyl-phenyl)-ethyl]-amide]	> 1 µM	< 0.1 µM	
CCNc1ncc(CO)c(-c2c[nH]c(C(=O)NC(CO)c3ccccc3)c2)n1 (centres unmarked) [III-a-189, 4-(2-Ethylamino-5-hydroxymethyl-pyrimidin-4-yl)-1H-pyrrole-2-carboxylic acid (2-hydroxy-1-phenyl-ethyl)-amide]	> 1 µM	< 0.1 µM	
O=C(NC(CO)c1ccccc1)c1cc(-c2nc(Nc3ccccc3)ncc2C2CC2)c[nH]1 (centres unmarked) [III-a-144, 4-(5-Cyclopropyl-2-phenylamino-pyrimidin-4-yl)-1H-pyrrole-2-carboxylic acid (2-hydroxy-1-phenyl-ethyl)-amide]	> 1 µM	0.1 to 1 µM	
CCNc1ncc(C)c(-c2c[nH]c(C(=O)NC(CCO)c3ccccc3)c2)n1 (centres unmarked) [III-a-173, 4-(2-Ethylamino-5-methyl-pyrimidin-4-yl)-1H-pyrrole-2-carboxylic acid (3-hydroxy-1-phenyl-propyl)-amide]	> 1 µM	0.1 to 1 µM	
Cc1cnc(NCC(C)O)nc1-c1c[nH]c(C(=O)NC(CO)c2ccccc2)c1 (centres unmarked) [III-a-178, 4-[2-(2-Hydroxy-propylamino)-5-methyl-pyrimidin-4-yl]-1H-pyrrole-2-carboxylic acid (2-hydroxy-1-phenyl-ethyl)-amide]	0.1 to 1 µM	< 0.1 µM	
CCNc1ncc(C)c(-c2c[nH]c(C(=O)NC(CO)c3cccc(F)c3)c2)n1 (centres unmarked) [III-a-191, 4-(2-Ethylamino-5-methyl-pyrimidin-4-yl)-1H-pyrrole-2-carboxylic acid [1-(3-fluoro-phenyl)-2-hydroxy-ethyl]-amide]	0.1 to 1 µM	< 0.1 µM	
CCNc1ncc(C)c(-c2c[nH]c(C(=O)NC(C(=O)OC)c3ccccc3)c2)n1 (centres unmarked) [III-a-184, {[4-(2-Ethylamino-5-methyl-pyrimidin-4-yl)-1H-pyrrole-2-carbonyl]-amino}-phenyl-acetic acid methyl ester]	> 1 µM	0.1 to 1 µM	
CCNc1ncc(C)c(-c2c[nH]c(C(=O)NC(CCO)c3ccccc3)c2)n1 (centres unmarked) [III-a-172, 4-(2-Ethylamino-5-methyl-pyrimidin-4-yl)-1H-pyrrole-2-carboxylic acid (3-hydroxy-1-phenyl-propyl)-amide]	> 1 µM	> 1 µM	

Second part, led by results:

Ki (GSK-3β (AA 1–420))	Ki (ERK2; [1])	SMILES	Ki (ERK2; ERK2 Inhibitory Activity (Ki class D-F))
< 0.1 µM	< 0.1 µM	Cc1cccc(C(CO)NC(=O)c2cc(-c3nc(Nc4cccc(F)c4)ncc3C)c[nH]2)c1 (centres unmarked) [III-a-212, 4-[2-(3-Fluoro-phenylamino)-5-methyl-pyrimidin-4-yl]-1H-pyrrole-2-carboxylic acid (2-hydroxy-1-m-tolyl-ethyl)-amide]	
0.1 to 1 µM	< 0.1 µM	COc1ccccc1C(CO)NC(=O)c1cc(-c2nc(NC3CC3)ncc2C)c[nH]1 (centres unmarked) [III-a-203, 4-(2-Cyclopropylamino-5-methyl-pyrimidin-4-yl)-1H-pyrrole-2-carboxylic acid [2-hydroxy-1-(2-methoxy-phenyl)-ethyl]-amide]	
< 0.1 µM	< 0.1 µM	Cc1cnc(Nc2ccc(OC(F)(F)F)cc2)nc1-c1c[nH]c(C(=O)NC(CO)c2ccccc2)c1 (centres unmarked) [III-a-157, 4-[5-Methyl-2-(4-trifluoromethoxy-phenylamino)-pyrimidin-4-yl]-1H-pyrrole-2-carboxylic acid (2-hydroxy-1-phenyl-ethyl)-amide]	
0.1 to 1 µM	< 0.1 µM	Cc1cccc(C(CO)NC(=O)c2cc(-c3nc(NC(C)CO)ncc3C)c[nH]2)c1 (centres unmarked) [III-a-222, 4-[2-(2-Hydroxy-1-methyl-ethylamino)-5-methyl-pyrimidin-4-yl]-1H-pyrrole-2-carboxylic acid (2-hydroxy-1-m-tolyl-ethyl)-amide]	
< 0.1 µM	< 0.1 µM	Cc1cnc(NCC(F)(F)F)nc1-c1c[nH]c(C(=O)NC(CO)c2ccccc2)c1 (centres unmarked) [III-a-154, 4-[5-Methyl-2-(2,2,2-trifluoro-ethylamino)-pyrimidin-4-yl]-1H-pyrrole-2-carboxylic acid (2-hydroxy-1-phenyl-ethyl)-amide]	
0.1 to 1 µM	< 0.1 µM	CC(=O)Nc1ncc(C)c(-c2c[nH]c(C(=O)NC(CO)c3ccccc3)c2)n1 (centres unmarked) [III-a-213, 4-(2-Acetylamino-5-methyl-pyrimidin-4-yl)-1H-pyrrole-2-carboxylic acid (2-hydroxy-1-phenyl-ethyl)-amide]	
< 0.1 µM	< 0.1 µM	Cc1cnc(Nc2cccc(C)c2C)nc1-c1c[nH]c(C(=O)NC(CO)c2ccccc2)c1 (centres unmarked) [III-a-194, 4-[2-(2,3-Dimethyl-phenylamino)-5-methyl-pyrimidin-4-yl]-1H-pyrrole-2-carboxylic acid (2-hydroxy-1-phenyl-ethyl)-amide]	
< 0.1 µM	< 0.1 µM	Cc1cnc(NCC2CCCO2)nc1-c1c[nH]c(C(=O)NC(CO)c2ccccc2)c1 (centres unmarked) [III-a-217, 4-{5-Methyl-2-((tetrahydro-furan-2-ylmethyl)-amino]-pyrimidin-4-yl}-1H-pyrrole-2-carboxylic acid (2-hydroxy-1-phenyl-ethyl)-amide]	
< 0.1 µM	< 0.1 µM	Cc1cccc(C(CO)NC(=O)c2cc(-c3nc(Nc4ccccc4Cl)ncc3C)c[nH]2)c1 (centres unmarked) [III-a-209, 4-[2-(2-Chloro-phenylamino)-5-methyl-pyrimidin-4-yl]-1H-pyrrole-2-carboxylic acid (2-hydroxy-1-m-tolyl-ethyl)-amide]	
